According to patent publication US20220184032A1, “INDOLINE DERIVATIVES FOR TREATMENT AND/OR PREVENTION OF FIBROSIS DISEASES” (Taipei Medical University, priority 2015, published 2022):
Read-outs that look alike come from different tables or passages of the source.

Columns and labels:
[1] = tested on: OVA-induced lung fibrosis; assay: OVA lung fibrosis mice model; type: in vivo; details: weeks 4 to 12
Method: C57BL/6JNarl mice (8 weeks) were treated with OVA (50 μg/50 μl/day) or PBS (50 μl/day) by i.p. injection for 4 weeks. Then, mice were exposure of OVA (5% aerosol exposure) or PBS (aerosol exposure) for 8 weeks. TMU-C-0012 (25 mg/kg/day, q.d.) and dexamethasone (25 mg/kg/day, q.d.) were administered orally to OVA-injected mice from 4 weeks to 12 weeks. On weeks 12, the mice were sacrificed, and the histologic analysis of lung tissue was performed by hematoxylin-eosin (H&E) staining (original magnification, ×100).

in vitro = details: Chinese hamster, CHO cells with S9, % Cytotoxicity Cell Numbers; for cytotoxicity at 31 µM: 3.1E−05 M
[2] = tested on: BLM-induced lung fibrosis; assay: Bleomycin (BLM)-induced lung fibrosis mice model, preventive model; type: in vivo; details: days 1 to 21 after BLM
Method: (§1) In preventive model, C57BL/6JNarl mice (8 weeks) were treated with bleomycin (BLM, 0.05 U/50 μl) or PBS (50 μl) by endotracheal administration. TMU-C-0012 (25, 50, 100 mg/kg/day, q.d.) and dexamethasone (0.5 mg/kg/day, q.d.) were administered orally to bleomycin-treated mice from 1 to 21 days after BLM treatment. On day 21, the mice were sacrificed and, the histologic analysis of lung tissue was performed by hematoxylin-eosin (H&E) staining (original magnification, ×100). In therapeutic model, C57BL/6JNarl mice (8 weeks) were treated with bleomycin (BLM, 0.05 U/50 μl) or PBS (50 μl) by endotracheal administration. TMU-C-0012 (25, 50, 100 mg/kg/day, q.d.) and pirfenidone (200 mg/kg/day, q.d.) were administered orally to bleomycin-treated mice from 10 to 38 days after BLM treatment. On day 39, the mice were sacrificed, and the histologic analysis of lung tissue was performed by hematoxylin-eosin (H&E) staining (original magnification, ×100).

[3] = tested on: Salmonella typhimurium TA100; assay: Ames test, TA100
Method: (§2) Two histidine auxotrophic mutants (TA98 and TA100) of Salmonella typhimurium were used. Test strains were obtained from the frozen working stock vial and thawed at room temperature. A 0.2 mL aliquot was inoculated into 25 mL nutrient broth medium and then incubated at 35-37° C. with shaking (120 rpm) for 16-18 hours. The test substance was dissolved in DMSO with 10-fold dilutions to obtain 4 stock concentrations at 30,000, 3,000, 300 and 30 μg/mL. Rat liver microsome enzyme homogenate (S9) mixture was prepared containing 8 mM MgCl2, 33 mM KCl, 4 mM NADP, 5 mM glucose-6-phosphate, 100 mM NaH2PO4 (pH 7.4) and 4% (v/v) Aroclor 1254-induced male rat liver microsome enzyme homogenate (S9). A […] aliquot of test compound stock solution was combined with 0.1 mL strain culture and with 0.5 mL rat liver enzyme homogenate (S9) mixture or 0.5 mL PBS, and then the mixture was incubated at 35-37° C. with shaking (120 rpm) for 20 min. Molten top agar (2 mL containing 0.05 mM histidine and 0.05 mM biotin) was added, and then the mixture was poured onto the surface of a minimal glucose agar plate (30 mL of bottom agar per petri plate) to obtain final test substance concentrations at 3000, 300, 30 and 3μg/plate. The plates were incubated at 37° C. for 72 hours, and then the numbers of His+ revertant colonies were counted. Treatments resulting in a three-fold increase (≥3×) in revertant colonies compared to the vehicle control were considered mutagenic. Treatments that reduced the colony counts to ≤50% of the vehicle control were considered cytotoxic. Assays were performed in triplicate.

[4] = tested on: CC14-induced liver fibrosis; assay: CC14-induced liver fibrosis in mice; type: in vivo; details: weeks 2 to 6
Method: C57BL/6JNarl mice (8 weeks) were treated with CC14 (1 μl/μg/BW, q.w.) or PBS (1 μl/μg/BW, q.w.) by i.p. injection for 6 weeks. TMU-C-0012 (25, 50, 100 mg/kg/day, q.d.) and pirfenidone (250 mg/kg/day, q.d.) were administered orally to CC14-injected mice from 2 weeks to 6 weeks. On day 43, the mice were sacrificed, and the α-SMA analysis of liver tissue was performed by IHC staining (original magnification, ×100).

[5] = tested on: Salmonella typhimurium TA98; assay: Ames test, TA98
Method: as §2

[6] = tested on: BLM-induced lung fibrosis; assay: Bleomycin (BLM)-induced lung fibrosis mice model, therapeutic model; type: in vivo; details: days 10 to 38 after BLM
Method: as §1

[7] = first section (CHO + S9, HCA), 1.3E−04 M
[8] = first section (CHO + S9, HCA), 2.5E−04 M
[9] = first section (CHO + S9, HCA), 5.0E−04 M
[10] = first section (CHO + S9, HCA), 6.3E−05 M
[11] = second section (CHO + S9, HCA), 1.6E−05 M
[12] = second section (CHO + S9, HCA), 7.8E−06 M
[13] = first section (CHO + S9, HCA), 3.1E−05 M
[14] = second section (CHO + S9, HCA), 3.1E−05 M
[15] = TA100, Without S9, 300 μg/plate
[16] = TA100, Without S9, 3000 μg/plate
[17] = TA98, Without S9, 3000 μg/plate
[18] = reference compound, first section (CHO + S9, HCA), 3.6E−05 M

In the case of `O=C(/C=C/c1ccc2c(c1)CCN2S(=O)(=O)c1ccccc1)NO` [TMU-C-0012, 3-(1-Benzenesulfonyl-2,3-dihydro-1H-indol-5-yl)-N-hydroxyacrylamide], the “inhibition of OVA-induced lung fibrosis” value ([1]; 25 mg/kg/day q.d. orally, H&E lung histology week 12) is reported as “inhibits OVA-induced lung fibrosis in a dose dependent manner”, the “efficacy in inhibition compared with dexamethasone” value ([1]; dexamethasone 25 mg/kg/day q.d. orally) is reported as “higher than dexamethasone” and the cytotoxicity at 0.00013 M (in vitro; [7]) is reported as 37.6%. For the same compound, the cytotoxicity at 0.00025 M (in vitro; [8]) was 51.8%, the cytotoxicity at 31 µM (in vitro; first section (CHO + S9, HCA)) was 19.1% and the cytotoxicity at 0.0005 M (in vitro; [9]) was 61.7%. The cytotoxicity at 63 µM (in vitro; [10]) was 31.9%, the cytotoxicity at 16 µM (in vitro; [11]) was 60.4% and the cytotoxicity at 31 µM (in vitro; second section (CHO + S9, HCA)) was 69%. For the same compound, the cytotoxicity at 7.8 µM (in vitro; [12]) was 42.2%, the “% Cytotoxicity CBPI Index” value (CHO; [7]) was 57.4% and the “% Micronucleated Cells” value (CHO; [7]) was 1.45%. For the same compound, the “% Cytotoxicity CBPI Index” value (CHO; [8]) was 62.2%, the “% Micronucleated Cells” value (CHO; [8]) was 1.76% and the “% Cytotoxicity CBPI Index” value (CHO; [13]) was 41.5%. For the same compound, the “% Micronucleated Cells” value (CHO; [13]) was 1.64%, the “% Cytotoxicity CBPI Index” value (CHO; [9]) was 68.8% and the “% Micronucleated Cells” value (CHO; [9]) was 1.94%. For the same compound, the “% Cytotoxicity CBPI Index” value (CHO; [10]) was 47.3%, the “% Micronucleated Cells” value (CHO; [10]) was 1.26% and the “genotoxicity (micronucleus assay)” value (CHO; overall result of the assay) was “negative”. For the same compound, the Flat (CHO; second section (CHO + S9, HCA), 1.3E−04 M) was “CYTO (High cytotoxicity resulting in an insufficient number of scored cells (≥80% cytotoxicity))”, the “% Cytotoxicity CBPI Index” value (CHO; [11]) was 53.1% and the “% Micronucleated Cells” value (CHO; [11]) was 1.35%. The Flat (CHO; second section (CHO + S9, HCA), 2.5E−04 M) was “CYTO (High cytotoxicity resulting in an insufficient number of scored cells (≥80% cytotoxicity))”, the “% Cytotoxicity CBPI Index” value (CHO; [14]) was 58.8% and the “% Micronucleated Cells” value (CHO; [14]) was 1.25%. The Flat (CHO; second section (CHO + S9, HCA), 6.3E−05 M) was “CYTO (High cytotoxicity resulting in an insufficient number of scored cells (≥80% cytotoxicity))”, the “% Cytotoxicity CBPI Index” value (CHO; [12]) was 26.7% and the “% Micronucleated Cells” value (CHO; [12]) was 1.29%. The “inhibition of BLM-induced lung fibrosis” value ([2]; 25, 50, 100 mg/kg/day q.d. orally, H&E lung histology day 21) was “inhibits BLM-induced lung fibrosis in a dose-dependent manner”, the “efficacy in the inhibition compared with dexamethasone” value ([2]; dexamethasone 0.5 mg/kg/day q.d. orally) was “higher than dexamethasone” and the Cytotoxicity ([3]; TA100, With S9, 3 μg/plate) was “−”. The Mutagenicity ([3]; TA100, With S9, 3 μg/plate) was “−”, the Cytotoxicity ([3]; TA100, With S9, 30 μg/plate) was “−” and the Mutagenicity ([3]; TA100, With S9, 30 μg/plate) was “−”. For the same compound, the Cytotoxicity ([3]; TA100, With S9, 300 μg/plate) was “−”, the Mutagenicity ([3]; TA100, With S9, 300 μg/plate) was “−” and the Cytotoxicity ([3]; TA100, With S9, 3000 μg/plate) was “−”. For the same compound, the Mutagenicity ([3]; TA100, With S9, 3000 μg/plate) was “−”, the Cytotoxicity ([3]; TA100, Without S9, 3 μg/plate) was “−” and the Mutagenicity ([3]; TA100, Without S9, 3 μg/plate) was “−”. For the same compound, the Cytotoxicity ([3]; TA100, Without S9, 30 μg/plate) was “−”, the Mutagenicity ([3]; TA100, Without S9, 30 μg/plate) was “−” and the Cytotoxicity [3, 15] was “−”. The Mutagenicity [3, 15] was “−”, the Cytotoxicity [3, 16] was “−” and the Mutagenicity [3, 16] was “−”. The “inhibition on CC14-induced liver fibrosis” value ([4]; 25, 50, 100 mg/kg/day q.d. orally, α-SMA IHC of liver day 43) was “dose-dependent”, the “efficacy in inhibition compared with pirfenidone” value ([4]; pirfenidone 250 mg/kg/day q.d. orally) was “higher than pirfenidone” and the Cytotoxicity ([5]; TA98, With S9, 3 μg/plate) was “−”. For the same compound, the Mutagenicity ([5]; TA98, With S9, 3 μg/plate) was “−”, the Cytotoxicity ([5]; TA98, With S9, 30 μg/plate) was “−” and the Mutagenicity ([5]; TA98, With S9, 30 μg/plate) was “−”. The Cytotoxicity ([5]; TA98, With S9, 300 μg/plate) was “−”, the Mutagenicity ([5]; TA98, With S9, 300 μg/plate) was “−” and the Cytotoxicity ([5]; TA98, With S9, 3000 μg/plate) was “−”. For the same compound, the Mutagenicity ([5]; TA98, With S9, 3000 μg/plate) was “−”, the Cytotoxicity ([5]; TA98, Without S9, 3 μg/plate) was “−” and the Mutagenicity ([5]; TA98, Without S9, 3 μg/plate) was “−”. The Cytotoxicity ([5]; TA98, Without S9, 30 μg/plate) was “−”, the Mutagenicity ([5]; TA98, Without S9, 30 μg/plate) was “−” and the Cytotoxicity ([5]; TA98, Without S9, 300 μg/plate) was “−”. The Mutagenicity ([5]; TA98, Without S9, 300 μg/plate) was “−”, the Cytotoxicity [5, 17] was “−” and the Mutagenicity [5, 17] was “−”. For the same compound, the “genotoxicity (Ames test results)” value ([5]; overall Ames test result, TA98 and TA100, with and without S9) was “negative”, the “inhibition of BLM-induced lung fibrosis” value ([6]; 25, 50, 100 mg/kg/day q.d. orally, H&E lung histology day 39) was “inhibits BLM-induced lung fibrosis in a dose-dependent manner” and the “efficacy in inhibition compared with pirfenidone” value ([6]; pirfenidone 200 mg/kg/day q.d. orally) was “higher than pirfenidone”.
For `O=P1(N(CCCl)CCCl)NCCCO1` (stereo not shown) [Cyclophosphamide, reference compound], the “% Cytotoxicity CBPI Index” value (CHO; [18]) was 46.3%, the “% Micronucleated Cells” value (CHO; [18]) was 5.31% and the “Test Result” value (CHO; [18]) was “+ (p < 0.05 by t-test and % of micronucleated cells at least 3-fold higher than background levels.)”.
With `CO[C@@]12[C@H](COC(N)=O)C3=C(C(=O)C(C)=C(N)C3=O)N1C[C@@H]1N[C@@H]12` [Mitomycin C, reference compound] the “% Micronucleated Cells” value (CHO; reference compound, second section (CHO + S9, HCA), 3.0E−07 M) was 4.38%.
